Assay results reported in patent US6355410B1, “Method of reducing cell proliferation by inhibiting the Na+/H+ exchanger and inducing apoptosis” (priority 1998, dated 2002).

Assays:
[1] = molecular target: NHE-1 (Homo sapiens, UniProt P19634); conditions: literature reference 19; cited from earlier work
[2] = tested on: KG-1a cells; test: Intracellular pH of KG-1a cells incubated with HMA; format: cell-based, human; conditions: 10^-4M HMA, 5h, n=4, without HMA 6.9±0.08 after 5h
Description: (§1) Leukaemic cell lines (KG-1a and CEM) were incubated for varying periods of time with 10^−4M HMA and pHi and apoptosis measured. For both cell lines, in the absence of HMA, pHi ranged from 7.43±0.1 at time zero to 6.9±0.08 after 5h of incubation. However, after 5h with HMA, the pHi had decreased to 5.6±0.07 (n=4) for KG-1a and 6.1±0.06 (n=4) for CEM cells. In the absence of HMA, the percentage of KG-1a and CEM cells undergoing apoptosis, measured by annexin-V, ranged from 2% to 9% for the duration of the experiment, whereas by 5h in the presence of HMA, the percentage of KG-1a or CEM cells undergoing apoptosis ranged from 70-80%. […]
(§2) Measurement of pHi for hemopoietic cells has been described in detail elsewhere (8). Briefly, intracellular pH was measured by both flow cytometry and FRIM by incubating cells with carboxy SemiNaphthoRhodaFluor-1 acetoxymethyl ester, acetate (carboxy SNARF-1 AM, Molecular Probes, Eugene, Oreg.) for 15 min at room temperature. […] Flow cytometric results were analyzed using WinList Software (Verity Software House Inc. Topsham, ME) to obtain fluorescence ratio measurements. For both flow cytometry and FRIM analysis, the calibration curves were obtained and sample pHi values determined from the fluorescence ratio values using Table Curve software (SPSS Inc., Chicago, Ill.). […]

[3] = tested on: primary ALL patient leukaemic cells; test: Intracellular pH (FRIM and flow cytometry) of fresh ALL patient leukaemic cells incubated with HMA; format: cell-based, human; conditions: 10^-4M HMA, 1h, 3h and 5h, values set at 5.0
Description: (§3) Intracellular pH was measured by both FRIM and flow cytometry, while apoptosis was measured by annexin-V and TUNEL. […] For this reason, pHi values for 1h, 3h and 5h were set at 5.0. After 1h, the proportion of cells incubated with HMA undergoing apoptosis was about 85% using annexin-V and about 60% using the TUNEL technique.
as §2, with “temperature. SNARF is excited at 488 nm and emits at 580 nm and 640 nm. The ratio of the emission wavelengths 640/580 was used (8) to estimate the pHi from a calibration curve. The calibration curve was performed using the nigericin clamp technique (21).” for “temperature.”

[4] = tested on: CEM cells; test: Apoptosis (annexin-V) of CEM cells incubated with HMA; format: cell-based, human; conditions: 10^-4M HMA, 5h, without HMA 2% to 9%
Description: (§4) Leukaemic cell lines (KG-1a and CEM) were incubated for varying periods of time with 10^−4M HMA and pHi and apoptosis measured. For both cell lines, in the absence of HMA, pHi ranged from 7.43±0.1 at time zero to 6.9±0.08 after 5h of incubation. However, after 5h with HMA, the pHi had decreased to 5.6±0.07 (n=4) for KG-1a and 6.1±0.06 (n=4) for CEM cells. In the absence of HMA, the percentage of KG-1a and CEM cells undergoing apoptosis, measured by annexin-V, ranged from 2% to 9% for the duration of the experiment, whereas by 5h in the presence of HMA, the percentage of KG-1a or CEM cells undergoing apoptosis ranged from 70-80%.
(§5) The following human leukemic cell lines were originally obtained from ATCC (Rockville, Md.): KG-1a (BM acute myelogenous leukemia), Jurkat (acute T-cell leukemia), Molt-4 (PB acute lymphoblastic leukemia), CEM (PB acute lymphoblastic leukemia), K562 (chronic myeloid leukemia), THP-1 (acute monocytic leukemia), Nalm-6 (B-cell leukemia). All cell lines were cultured in Dulbecco's Modified Eagles Medium (DMEM) containing 10% heat-inactivated fetal bovine serum (FBS). Only cells in log phase growth were used.
(§6) Two methods were used to determine if reduction in pHi induced apoptosis. […]

[5] = tested on: KG-1a cells; test: Apoptosis (annexin-V) of KG-1a cells incubated with HMA; format: cell-based, human; conditions: 10^-4M HMA, 5h, without HMA 2% to 9%
Description: as §4, §5, §6

[6] = tested on: CEM cells; test: Intracellular pH of CEM cells incubated with HMA; format: cell-based, human; conditions: 10^-4M HMA, 5h, n=4, without HMA 6.9±0.08 after 5h
Description: as §1, §2

[7] = tested on: primary ALL patient leukaemic cells; test: Apoptosis (annexin-V and TUNEL) of fresh ALL patient leukaemic cells incubated with HMA; format: cell-based, human
Description: as §3
(§7) Two methods were used to determine if reduction in pHi induced apoptosis. The first used annexin-V conjugated to fluorescein isothiocyanate (FITC) (Pharmingen, San Diego, Calif.) to determine the translocation of phosphatidylserine from the inside to the outside of the plasma membrane. Cells were counter-stained with propidium iodide (PI) to determine the proportion of necrotic cells. Cell staining was performed according to the manufacturer's instructions. The second technique used terminal deoxynucleotidyl transferase (TdT)-mediated dUTP nick-end labeling (TUNEL) of fragmented DNA. Fluorochrome (FITC)-labelling of DNA (Boehringer Mannhein, Germany) was performed according to the manufacturer's instructions and measurements performed by flow cytometry.
The amiloride analogue, HMA (Sigma Chemicals, St. Louis, Mo.) was dissolved in dimethylsulphoxide (DMSO) and a stock solution (10^−3M) prepared in DMEM. Cells were incubated at concentrations ranging from 10^−7M to 10^−4M for varying periods of time specified in the results. After incubation, cells were washed and aliquoted according to the type of measurement (pHi or apoptosis) performed. Controls included cells not treated with HMA.

[8] = tested on: normal peripheral blood cells; test: Intracellular pH (flow cytometry and FRIM) of normal peripheral blood cells incubated with HMA; format: cell-based, human
Description: Normal peripheral blood cells were incubated in the absence or presence of the NHE-1 inhibitor, 5-(N,N-hexamethylene)-amiloride (HMA), at concentrations ranging from 10^−7M to 10^−4M for up to 5h. Cells were then aliquoted so that pHi and apoptotic measurements could be performed. In these experiments, pHi was measured using both flow cytometry and fluorescence ratio imaging microscopy (FRIM). […] The proportion of necrotic cells measured by propidium iodide (PI) remained constant at about 5% in the absence or presence of HMA for each time point measured. […] It is interesting to note that both methods measured about 25% apoptotic cells when pHi was reduced to about 6.8. […]
as §2

[9] = tested on: KG-1a cells; test: RNA degradation in KG-1a cells by denaturing RNA gel electrophoresis; format: cell-based, human; conditions: 10^-4M HMA
[10] = tested on: normal peripheral blood cells; format: cell-based, human
Description: Normal peripheral blood cells were incubated in the absence or presence of the NHE-1 inhibitor, 5-(N,N-hexamethylene)-amiloride (HMA), at concentrations ranging from 10^−7M to 10^−4M for up to 5h. Cells were then aliquoted so that pHi and apoptotic measurements could be performed. In these experiments, pHi was measured using both flow cytometry and fluorescence ratio imaging microscopy (FRIM). […] The proportion of necrotic cells measured by propidium iodide (PI) remained constant at about 5% in the absence or presence of HMA for each time point measured. […] It is interesting to note that both methods measured about 25% apoptotic cells when pHi was reduced to about 6.8. As shown in the next section, a pHi of 6.8 appears to be a critical value below which increased apoptosis occurs.
as §7, with “Fluorochrome (FITC)-labelling of DNA (Boehringer Mannhein, Germany) was performed according to the manufacturer's instructions and measurements performed by flow cytometry.” left out

[11] = tested on: normal peripheral blood (PB) cells; test: Proportion of cells in S-phase (propidium iodide) of peripheral blood incubated with phorbol ester; format: cell-based, human; conditions: untreated PB 1.19%±0.34%
Description: (§8) The pHi and the percentage of cells in S-phase of the cell cycle were simultaneously determined in aliquots of the same sample, using propidium iodide labeling. Prior to analysis, peripheral blood was also incubated with phorbol ester to activate the NHE-1. […] Furthermore, there was a direct correlation between pHi and proportion of cells in S-phase in both normal and neoplastic haemopoietic cells of various origins (FIG. 4). Thus, intracellular alkalinisation is associated with an increased proliferation and possibly transformation of haemopoietic cells. We hypothesized that unregulated proliferation of leukaemic cells might, at least in part, be due to suppression of normal apoptotic mechanisms. In this case, inhibitors of the NHE-1 would be expected to induce apoptosis in leukaemic cells, and we therefore examined the effects of NHE-1 inhibitors upon such cells.
Normal PB cells were incubated for 5 min with 10^−6 M phorbol-12-myristate-13-acetate (PMA, Sigma Chemical Company, St. Louis, Mo.) to non-specifically activate the NHE-1. […]
The proportion of cells in S-phase of the cell cycle was determined using the propidium iodide technique using the CycleTEST Plus DNA reagent kit (Becton-Dickinson, San Jose, Calif.). Data were acquired by flow cytometry, and analyzed using the Modfit LT software program (Verity Software House Inc).

[12] = tested on: normal peripheral blood (PB) cells; test: Intracellular pH (SNARF, flow cytometry) of peripheral blood incubated with phorbol ester; format: cell-based, human; conditions: PB incubated with phorbol ester (10^-6 M PMA, 5 min); unstimulated PB 7.03±0.04
Description: as §8, with “In this case, inhibitors of the NHE-1 would be expected to induce apoptosis in leukaemic cells, and we therefore examined the effects of NHE-1 inhibitors upon such cells.” left out
Measurement of pHi for hemopoietic cells has been described in detail elsewhere (8). Briefly, intracellular pH was measured by both flow cytometry and FRIM by incubating cells with carboxy SemiNaphthoRhodaFluor-1 acetoxymethyl ester, acetate (carboxy SNARF-1 AM, Molecular Probes, Eugene, Oreg.) for 15 min at room temperature. […] Flow cytometric results were analyzed using WinList Software (Verity Software House Inc. Topsham, ME) to obtain fluorescence ratio measurements. For both flow cytometry and FRIM analysis, the calibration curves were obtained and sample pHi values determined from the fluorescence ratio values using Table Curve software (SPSS Inc., Chicago, Ill.).

[13] = ALL patient cells, 10^-4M HMA, 1h

Sequence of NHE-1 (P19634 whole entry, species assumed): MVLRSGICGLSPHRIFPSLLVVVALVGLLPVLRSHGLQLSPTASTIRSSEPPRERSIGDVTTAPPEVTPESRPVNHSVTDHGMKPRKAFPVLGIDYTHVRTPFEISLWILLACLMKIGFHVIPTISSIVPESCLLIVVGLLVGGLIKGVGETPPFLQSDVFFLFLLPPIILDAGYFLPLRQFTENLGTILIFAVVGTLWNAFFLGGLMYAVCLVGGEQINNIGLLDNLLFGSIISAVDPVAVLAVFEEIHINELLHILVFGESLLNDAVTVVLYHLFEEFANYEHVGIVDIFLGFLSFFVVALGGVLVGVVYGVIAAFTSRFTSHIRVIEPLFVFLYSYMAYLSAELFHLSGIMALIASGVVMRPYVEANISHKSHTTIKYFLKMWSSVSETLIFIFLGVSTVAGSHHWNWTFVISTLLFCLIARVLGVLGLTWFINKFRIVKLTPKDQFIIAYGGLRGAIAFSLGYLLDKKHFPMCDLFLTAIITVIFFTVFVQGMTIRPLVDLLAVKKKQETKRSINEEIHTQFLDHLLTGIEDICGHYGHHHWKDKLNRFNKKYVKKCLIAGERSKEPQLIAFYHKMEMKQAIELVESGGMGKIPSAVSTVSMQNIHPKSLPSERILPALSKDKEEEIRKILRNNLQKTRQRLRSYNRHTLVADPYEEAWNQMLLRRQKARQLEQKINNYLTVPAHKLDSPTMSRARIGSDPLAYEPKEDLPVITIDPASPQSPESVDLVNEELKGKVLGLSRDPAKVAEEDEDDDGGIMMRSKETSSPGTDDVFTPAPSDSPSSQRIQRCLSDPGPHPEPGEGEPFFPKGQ

CCN(c1nc(N)c(C(=O)N=C(N)N)nc1Cl)C(C)C [EIPA, 5-(N-ethyl-N-isopropyl) amiloride]
potency and specificity of NHE-1 inhibition relative to amiloride [1]: greater potency and specificity of NHE-1 inhibition than amiloride itself

NC(N)=NC(=O)c1nc(Cl)c(N2CCCCCC2)nc1N [HMA, 5-(N,N-hexamethylene)-amiloride]
pHi [2]: 5.6±0.07
pHi measured by flow cytometry [3]: too low to calibrate
percentage of cells undergoing apoptosis, annexin-V [4]: 70-80%
percentage of cells undergoing apoptosis, annexin-V [5]: 70-80%
pHi [6]: 6.1±0.06
proportion of cells undergoing apoptosis, TUNEL [7, 13]: about 60%
proportion of cells undergoing apoptosis, annexin-V [7, 13]: about 85%
apoptotic cells, both methods (annexin-V and TUNEL) ([7]; ALL patient cells, 10^-4M HMA, 5h): over 90%
sensitivity of primary ALL cells versus normal PB ([7]; differential effect of HMA between normal and acute lymphoblastic leukaemic cells): greater sensitivity to HMA than normal PB
time to induction of apoptosis ([7]; primary leukemic cells): ≤ 1 h
cells either dead or undergoing apoptosis ([7]; primary leukemic cells, between 3 and 5 h of incubation): more than 90%
inhibition (decrease of pHi), time and concentration dependence ([8]; HMA 10^-7M to 10^-4M, up to 5h, flow cytometry and FRIM): greatest inhibition occurred at 5h, using the highest HMA concentration
pHi reduced to ([8]; normal PB incubated with HMA, pHi at which about 25% apoptotic cells were measured): about 6.8
onset of RNA degradation after addition [9]: began to degrade between 30 min and 1h
time to total RNA degradation [9]: ≤ 3 h
potency and specificity of NHE-1 inhibition relative to amiloride [1]: greater potency and specificity of NHE-1 inhibition than amiloride itself
proportion of apoptotic cells, time and concentration dependence ([10]; HMA 10^-7M to 10^-4M, up to 5h, annexin-V and TUNEL): greatest proportion of apoptotic cells was found after 5h incubation with 10^−4M HMA
apoptotic cells ([10]; normal PB with HMA, both methods (annexin-V, TUNEL), when pHi reduced to about 6.8): about 25%

CCCCCCCCCCCCCC(=O)O[C@@H]1[C@@H](C)[C@@]2(O)[C@@H](C=C(CO)C[C@]3(O)C(=O)C(C)=C[C@@H]23)[C@@H]2C(C)(C)[C@]12OC(C)=O [phorbol ester, phorbol-12-myristate-13-acetate]
proportion of cells in S-phase [11]: 8.7%±0.17%
pHi [12]: 7.32±0.043
